Test results published in US20240207414A1, “DISULFIDE-BASED PRODRUG COMPOUND” (Ludwig-Maximilians-Universitat Munchen, priority 2021, published 2024).

Experiments:
[1] = biological target: T1, GR/GSH/Grx (glutaredoxin 1, Grx1) (Homo sapiens, UniProt P35754); test: Enzymatic activation assay: GR/GSH/Grx1; type: biochemical; details: full mixture NADPH/GR/GSH/Grx1
T1 sequence (P35754 1-106): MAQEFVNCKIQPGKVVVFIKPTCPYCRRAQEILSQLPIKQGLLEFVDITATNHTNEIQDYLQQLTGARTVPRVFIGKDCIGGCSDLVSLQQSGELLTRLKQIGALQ
Source text: (§1) This assay (see FIG. 2) examined the resistance of disulfide-based reduction-triggered compounds to the major cellular enzymatic systems that maintain redox homeostasis and are capable of reducing disulfides, evaluated in a cell-free assay, to see if these compounds can be useful for selective enzyme-triggered release.
(§2) Assay conditions: A black 96-well plate with black bottom was charged with solutions of fluorophore-releasing reduction-triggered probes that are compounds of the invention (P1, P2) or that are not compounds of the invention and reveal the performance of prior art systems (X19) (50 μL; 40 μM in aq. TE buffer (pH 7.4) and 4 μL DMSO). Separately, master mixes (30 μL in aq. TE buffer (pH 7.4)) containing mixtures of the proteins human recombinant thioredoxin 1 (Trx1, 0.166-16.66 μM) or thioredoxin 2 (Trx2, 3.3 μM), or human recombinant glutaredoxin 1 (“Grx1”, 3.3 μM) or glutaredoxin 2 (Grx2, 3.3 μM) and/or oxidoreductases human recombinant thioredoxin reductase 1 (TrxR1, 0.07 μM), the thioredoxin reductase Secys498Cys mutant (TrxR1-U498C, 0.07 μM), thioredoxin reductase 2 (TrxR2, 0.07 μM) or human recombinant glutathione reductase (GR, 0.07 μM), and/or GSH (3.3 μM) were prepared. Note that TrxR1 (U498C) has decreased reducing power compared to TrxR1 due to the mutation of the key vicinal selenothiol/thiol into a vicinal dithiol, but it still reduces Trx1. […]
(§3) Data Representation: (F(t)-F^NADPH(t)) is the fluorescence intensity of the test solution at time t, from which is subtracted a background fluorescence level also at time t from a solution with NADPH (which itself is fluorescent, and is present in 10-fold higher concentration than the probe) and with the same protein mixture but without the probe. F^max(t) is the maximum possible fluorescence intensity value at time t, determined by incubation with TCEP (100 μM)) similarly as for the chemical reductant assay. (F(t)−F^NADPH(t))/F^max(t) thus gives the timecourse of fluorescence signal, as a fraction of the maximum possible fluorescence signal. […]

[2] = biological target: T2, thioredoxin reductase 1 (TrxR1) (Homo sapiens, UniProt Q16881); test: Enzymatic activation assay: NADPH/TrxR1 without Trx; type: biochemical; details: NADPH/TrxR1, no Trx added, 37° C., 6 h
T2 sequence (Q16881 1-499 isoform Q16881-5): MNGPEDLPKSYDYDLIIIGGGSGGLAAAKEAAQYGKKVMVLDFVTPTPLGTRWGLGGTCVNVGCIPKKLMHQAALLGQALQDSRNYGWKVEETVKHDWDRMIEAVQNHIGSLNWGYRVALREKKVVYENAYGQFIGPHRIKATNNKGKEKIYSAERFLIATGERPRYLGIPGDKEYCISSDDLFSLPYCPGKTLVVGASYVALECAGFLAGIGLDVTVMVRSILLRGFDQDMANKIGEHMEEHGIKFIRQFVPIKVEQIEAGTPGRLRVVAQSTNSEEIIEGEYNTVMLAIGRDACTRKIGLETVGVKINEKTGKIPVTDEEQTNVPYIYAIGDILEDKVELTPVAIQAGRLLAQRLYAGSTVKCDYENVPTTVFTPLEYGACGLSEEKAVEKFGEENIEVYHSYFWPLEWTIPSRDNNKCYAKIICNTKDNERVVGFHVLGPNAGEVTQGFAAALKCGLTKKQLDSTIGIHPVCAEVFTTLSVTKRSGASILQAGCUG
Source text: as §1, §2, §3

[3] = Chemical reductant assay: GSH challenge (cell-free); type: physicochemical; details: aq. TE buffer pH 7.4, 37° C., 6 h, GSH 0.01-10 mM
Source text: This assay (see FIG. 1) examined the stability of disulfide-based reduction-triggered compounds of the invention when exposed to monothiol reductants, primarily the major physiological cellular monothiol GSH, and dithiol reductants like the disulfide reductant dithiothreitol (DTT), as evaluated in a cell-free assay, to determine whether these compounds can be useful for selective release.
Assay Conditions: A black 96-well plate with black bottom was charged with solutions of fluorophore-releasing reduction-triggered probes that are compounds of the invention (P1, P2, P3, P4 and P5) or that are not compounds of the invention and reveal the performance of prior art systems (X19) (80 μL; 25 μM in aq. TE buffer (pH 7.4) and 1.25% vol DMSO). Solutions of challenge species chosen from the monothiol glutathione (GSH, 0.1-50 mM) and the dithiol reductant dithiothreitol (DTT, 0.1-50 mM) or phosphine reductant tris-(2-carboxyethyl) phosphine (TCEP); (20 μL; 1 mM in aq. TE buffer (pH 7.4) were added and the reaction mixtures were incubated at 37° C. for 6 h while measuring fluorescence intensity over time [F(t)] using a BMG Labtech FLUOstar Omega platereader (λexc=355 nm, Δem=530 nm for PQ-OH-releasing probes X19, P1 and P2; Δexc=485 nm, Δem=530 nm for MF-OH-releasing probes P3 and P4.
Data Representation: F^max is the maximum possible fluorescence increase corresponding to complete reduction-triggered cargo release, i.e. the fluorescence intensity increase from time zero to signal plateau under TCEP incubation PQ-OH-releasing probes. F(t)/F^max(t) thus gives the timecourse measurements of fluorescence intensity, as a fraction of the maximum possible fluorescence signal. F^sat is the endpoint fluorescence intensity increase for each condition, ie. F^sat=(F(6 h)). F^sat/F^max thus gives the assay endpoint fluorescence intensity increase, as a fraction of the maximum possible fluorescence signal. In the GSH timecourse measurements shown in FIG. 1, all datasets annotated with concentrations only (0.01-10 mM) refer to GSH challenges, while datasets for TCEP positive control (100 μM) and no-reductant control (blank) are shown for comparison. The dose-response plots show F^sat/F^max for the different ratios between probe and GSH or probe and DTT concentrations, with a logarithmic horizontal scale.

NADPH/TrxR1/Trx1 = biological target: T3, NADPH/TrxR1/Trx1 (Homo sapiens, UniProt P10599); test: Enzymatic activation assay: NADPH/TrxR1/Trx1 system; type: biochemical; details: NADPH/TrxR1 plus Trx1, 37° C., 6 h
T3 sequence (P10599 1-105): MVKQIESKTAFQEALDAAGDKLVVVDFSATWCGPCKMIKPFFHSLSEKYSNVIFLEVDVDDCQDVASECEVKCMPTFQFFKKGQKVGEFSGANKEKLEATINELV
Source text: as §1, §2, §3

Compound | cargo release / processing by GR/GSH/Grx1 [1] | cargo release / processing by TrxR1 [2] | cargo release (fluorescence) when challenged with monothiol reductant GSH [3] | cargo release / processing by TrxR plus Trx1 (NADPH/TrxR1/Trx1)
O=C(Oc1ccc(Cl)cc1-c1nc2ccc(Cl)cc2c(=O)[nH]1)N1CCC[C@@H]2CSSC[C@H]21 (racemic) [Compound P1, 4-chloro-2-(6-chloro-4-oxo-3,4-dihydroquinazolin-2-yl)phenyl-(trans)-hexahydro-[1,2]dithiino[4,5-b]pyridine-1(2H)-carboxylate] | only processed by high levels of Grx1 and Grx2 | not processed | do not release cargo | processed when additional high levels of Trx1 and Trx2 are added
O=C(Oc1ccc(Cl)cc1-c1nc2ccc(Cl)cc2c(=O)[nH]1)N1CCC[C@@H]2CSSC[C@@H]21 (racemic) [Compound P2, 4-chloro-2-(6-chloro-4-oxo-3,4-dihydroquinazolin-2-yl)phenyl-(cis)-hexahydro-[1,2]dithiino[4,5-b]pyridine-1(2H)-carboxylate] | only processed by high levels of Grx1 and Grx2 | not processed | do not release cargo | processed when additional high levels of Trx1 and Trx2 are added
4-chloro-2-(6-chloro-4-oxo-3,4-dihydroquinazolin-2-yl)phenyl methyl(2-((2-(methyl amino)ethyl)disulfaneyl)ethyl)carbamate [Compound X19, reference compound] | enhanced reaction kinetics | rapidly degraded | already unstable to the monothiol GSH | enhanced reaction kinetics
